Reference: publication PMC4239038, “The Potent Cdc7-Dbf4 (DDK) Kinase Inhibitor XL413 Has Limited Activity in Many Cancer Cell Lines and Discovery of Potential New DDK Inhibitor Scaffolds” (PLoS ONE, 2014)
Where two headings read alike, the source gives them in different places.

Tests used:
purified DDK = target: T1, purified DDK (Homo sapiens, UniProt O00311); experiment: In vitro (γ)-32P ATP DDK kinase assay (DDK auto-phosphorylation); format: biochemical; conditions: increasing inhibitor concentrations
T1 construct: His6-Smt3 (SUMO) (N, cleaved yes); made in house; host or cells: E. coli BL21-RIPL (pKT37, pETDuet-1 vector)

HCC1954 cells [1] = experiment: Caspase 3/7 activity (apoptosis); format: cell-based; conditions: HCC1954, 24 hours
Procedure: Caspase 3/7 activity and viable cell number were then measured using the Caspase-Glo 3/7 assay (Promega) and CellTiter-Glo assay (Promega), respectively.

HCC1954 cells [2] = experiment: Cell viability, CellTiter-Glo; format: cell-based; conditions: Homo sapiens, HCC1954, 72 h
panel of 100 kinases = system: panel of 100 kinases; parameters: method as in PMID 22560567; conditions: panel of 100 kinases ref 49; cited from earlier work
DDK = conditions: purified DDK ref 49; read-out: DDK IC50 (in vitro); cited from earlier work
Colo-205 cells [3] = system: Colo-205 cells; parameters: method as in PMID 22560567; conditions: Colo-205 ref 49; read-out: Cellular Proliferation IC50; cited from earlier work
[4] = system: Mcm2 Serine 53 phosphorylation in HCC1954 cells; experiment: Immunoblot of DDK-dependent Mcm2 phosphorylation; format: cell-based; conditions: HCC1954, 5 µM
Procedure: Whole cell extracts were prepared by re-suspending the pellets in RIPA buffer (150 mM NaCl, 1% NP-40, 0.5% sodium deoxycholate, 0.1% SDS, 50 mM Tris HCl, pH 8) containing protease inhibitors (100 µM PMSF, 1 mM Benzamide, 2.5 µg/ml Pepstatin A, 10 µg/ml Leupeptin, and 10 µg/ml Aprotinin) and phosphatase inhibitors (1 mM each NaF, Na3VO4 and Na4P2O7). Protein concentration was measured using the BCA protein assay kit (Pierce) according to manufacturer's protocol. Equal amounts of protein were subjected to SDS-PAGE and transferred to a nitrocellulose membrane (Millipore). Transfer efficiency and equal loading was confirmed by Ponceau S staining. Following primary and secondary antibody treatments, proteins were visualized using SuperSignal West Pico solutions (Thermo Scientific). Anti-Mcm2 and anti-S53-phospho-Mcm2 antibodies were purchased from Bethyl Laboratories; anti-β-actin was from Sigma; anti-mouse and anti-rabbit HRP antibodies were from GE Healthcare; and anti-Cdc7 and anti-Dbf4 antibodies were described previously.
Effective cellular uptake of the DDK inhibitor should compromise DDK activity in vivo. Among the many targets of DDK are components of the replicative Mcm2–7 helicase. Serine 53 of Mcm2 subunit is a well-characterized target site for DDK mediated phosphorylation. We quantitated levels of phosphorylation on this site as a measure of DDK activity in vivo. […] Cells were then harvested at 0, 24, 48, and 72 hours post drug addition to measure viable cells and Mcm2 phosphorylation by immunoblotting.

Colo-205 cells [5] = conditions: Colo-205, 24 hours
HCT116 (p53+/+) cells = experiment: Cell viability, CellTiter-Glo; format: cell-based
Colo-205 cells [6] = experiment: Cell viability, CellTiter-Glo; format: cell-based; conditions: Homo sapiens, COLO 205, 72 h
HCT116 (p53-/-) cells = experiment: Cell viability, CellTiter-Glo; format: cell-based; conditions: Homo sapiens, HCT-116, 72 hrs post drug addition
Eight tumor cell lines = experiment: Cell viability at 5 µM inhibitor, cell line panel; format: cell-based; conditions: 72 hrs, relative to vehicle controls
[7] = system: Mcm2 phosphorylation in Colo-205 cells; experiment: Immunoblot of DDK-dependent Mcm2 phosphorylation; format: cell-based; conditions: Colo-205, 5 µM, 24 hours

T1 sequence (O00311 whole entry): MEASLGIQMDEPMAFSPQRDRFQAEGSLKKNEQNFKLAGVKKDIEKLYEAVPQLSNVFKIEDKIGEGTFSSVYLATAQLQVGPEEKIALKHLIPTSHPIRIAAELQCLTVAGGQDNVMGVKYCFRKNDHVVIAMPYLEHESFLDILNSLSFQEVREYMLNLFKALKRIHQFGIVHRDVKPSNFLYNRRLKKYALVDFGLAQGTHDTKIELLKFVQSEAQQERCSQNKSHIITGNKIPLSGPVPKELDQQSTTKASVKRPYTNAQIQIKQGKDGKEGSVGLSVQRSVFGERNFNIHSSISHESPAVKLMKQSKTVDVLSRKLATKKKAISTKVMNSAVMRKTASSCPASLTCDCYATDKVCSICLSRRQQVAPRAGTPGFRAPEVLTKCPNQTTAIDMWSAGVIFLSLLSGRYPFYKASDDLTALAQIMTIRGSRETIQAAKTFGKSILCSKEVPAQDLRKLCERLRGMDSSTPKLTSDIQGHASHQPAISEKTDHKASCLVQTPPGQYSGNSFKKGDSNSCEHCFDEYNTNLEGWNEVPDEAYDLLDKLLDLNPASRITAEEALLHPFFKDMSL
T1 sequence (Q9UBU7 341-674 partner limits assumed): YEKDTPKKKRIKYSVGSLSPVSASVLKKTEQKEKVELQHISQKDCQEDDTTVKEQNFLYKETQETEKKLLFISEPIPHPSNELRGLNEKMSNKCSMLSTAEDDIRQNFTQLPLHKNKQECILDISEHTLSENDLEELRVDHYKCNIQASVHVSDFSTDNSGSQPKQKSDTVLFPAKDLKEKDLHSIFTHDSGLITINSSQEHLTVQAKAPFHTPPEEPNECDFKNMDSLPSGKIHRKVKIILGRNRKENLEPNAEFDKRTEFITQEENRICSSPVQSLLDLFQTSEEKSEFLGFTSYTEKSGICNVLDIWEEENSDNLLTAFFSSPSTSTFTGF

Compound: O=c1[nH]c([C@@H]2CCCN2)nc2c1oc1ccc(Cl)cc12 [XL413, (S)-8-chloro-2-(pyrrolidin-2-yl)benzofuro[3,2-d]pyrimidin-4(3H)-one]
- IC50 (purified DDK): 22.7 nM
- Apoptosis induction (Caspase 3/7 activity) (HCC1954 cells [1]): induced apoptosis only in the Colo-205 cells
- IC50 (HCC1954 cells [2]; HCC1954, 72 hrs post drug addition): 22900 nM
- IC50 (HCC1954 cells [2]; XL413 from commercial supplier MedKoo): 22400 nM
- Selectivity for DDK (panel of 100 kinases): highly selective for DDK
- IC50 (DDK): 3.4 nM
- IC50 (Colo-205 cells [3]): 2690 nM
- Mcm2 phosphorylation ([4]; 24 hrs): did not inhibit Mcm2 phosphorylation
- Mcm2 phosphorylation ([4]; 72 hours): only a modest decrease in Mcm2 phosphorylation
- Apoptosis induction (Caspase 3/7 activity) (Colo-205 cells [5]): induced apoptosis only in the Colo-205 cells
- IC50 (HCT116 (p53+/+) cells; Homo sapiens, HCT-116, HCT116 (p53+/+), 72 hrs post drug addition): 28700 nM
- IC50 higher than PHA-767491 (HCT116 (p53+/+) cells; two additional colorectal tumor cell lines (HCT116 p53+/+ and p53-/-)): 40- to 60 fold
- IC50 (Colo-205 cells [6]; Colo-205, 72 hrs post drug addition): 1100 nM
- IC50 (Colo-205 cells [6]; Colo-205, 72 hrs, XL413 from commercial supplier MedKoo): 600 nM
- IC50 (HCT116 (p53-/-) cells): 36600 nM
- Anti-proliferative activity (Eight tumor cell lines): anti-proliferative only in the Colo-205 cells
- Mcm2 phosphorylation [7]: completely abolished Mcm2 phosphorylation
